{"source": "patent US20030199515A1", "about": "“Method for the preparation of crystalline tetrahydrobenzothiepines” (G.D. SEARLE, LLC, priority 2001, published 2003)", "assay": "Water uptake experiments (Dynamic Vapor Sorption water sorption/desorption isotherms)", "type": "physicochemical", "conditions": "for hygroscopicity (in words): crystalline form", "experimental": "Water sorption experiments are performed on a Dynamic Vapor Sorption (DVS) apparatus (DVS-1000 manufactured by Surface Measurements Systems, Inc.). Experiments are performed at 25° C. by initially drying the material of interest (about 10 mg sample) from 30% relative humidity (RH) (ambient room condition) to about […] in a stepwise fashion (10% RH step) by purging with dry nitrogen until no further weight change was observed. The samples are then exposed to a stepwise (10% RH steps) increase in RH from about 0 to about 90% RH. Each successive step is initiated when the change in weight over time at the relative humidity was less than 0.0003% ((dm/dt)/m0×100, where m is mass in mg, m0 is initial mass, and t is time in minutes). The sample is then taken through the reverse of the stepwise % RH increase. The data are collected on a computer and analyzed using SMS′ proprietary MS-Excel macro interface software.", "data": [{"smiles": "CCCCC1(CCCC)CS(=O)(=O)c2ccc(N(C)C)cc2[C@@H](c2ccc(OCc3ccc(C[N+]45CCN(CC4)CC5)cc3)cc2)[C@H]1O.[Cl-]", "note": "[Form I, (4R,5R)-1-((4-(4-(3,3-dibutyl-7-(dimethylamino)-2,3,4,5-tetrahydro-4-hydroxy-1,1-dioxido-1-benzithiepin-5-yl)phenoxy)methyl)phenyl)methyl-4-aza-1-azoniabicyclo[2.2.2]octane Chloride]", "values": [{"measurement": "hygroscopicity (in words)", "value": "hygroscopic"}]}, {"smiles": "CCCCC1(CCCC)CS(=O)(=O)c2ccc(N(C)C)cc2[C@@H](c2ccc(OCc3ccc(C[N+]45CCN(CC4)CC5)cc3)cc2)[C@H]1O.[Cl-]", "note": "[Form II, (4R,5R)-1-((4-(4-(3,3-dibutyl-7-(dimethylamino)-2,3,4,5-tetrahydro-4-hydroxy-1,1-dioxido-1-benzithiepin-5-yl)phenoxy)methyl)phenyl)methyl-4-aza-1-azoniabicyclo[2.2.2]octane Chloride]", "values": [{"measurement": "hygroscopicity (in words)", "value": "essentially nonhygroscopic"}, {"measurement": "hygroscopicity (in words)", "setting": "listed as form II", "value": "essentially non-hygroscopic"}, {"measurement": "weight gain of a dry sample (% of its own weight) when equilibrated under humid air", "setting": "dry sample, equilibrated under 80% relative humidity (RH) air at 25° C.", "value": "less than 1%"}]}]}
